Measured values published in EP1220857B1, “GONADOTROPIN RELEASING HORMONE RECEPTOR ANTAGONISTS AND THEIR RELATED METHODS OF USE” (NEUROCRINE BIOSCIENCES, INC., priority 1999, dated 2001).

The compounds below were run against T1, GnRH receptor (Homo sapiens, UniProt P30968) (assay: GnRH receptor membrane binding assay). Details: displacement of [125I]-labeled GnRH peptide from membranes of cells transfected with GnRH receptor expression vectors; Ki by Cheng-Prusoff.
T1 construct: expressed in transfected cells
T1 sequence (P30968 1-328): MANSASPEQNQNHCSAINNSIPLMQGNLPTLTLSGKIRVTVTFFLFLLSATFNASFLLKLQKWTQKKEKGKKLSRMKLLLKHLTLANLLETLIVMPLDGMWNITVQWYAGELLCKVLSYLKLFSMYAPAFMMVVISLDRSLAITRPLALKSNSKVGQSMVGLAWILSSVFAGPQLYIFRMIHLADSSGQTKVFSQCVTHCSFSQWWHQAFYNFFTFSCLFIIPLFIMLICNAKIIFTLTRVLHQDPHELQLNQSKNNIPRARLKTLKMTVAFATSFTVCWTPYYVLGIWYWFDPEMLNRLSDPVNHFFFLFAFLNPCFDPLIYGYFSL
Protocol: Activity of GnRH receptor antagonists are typically calculated from the IC50 as the concentration of a compound necessary to displace 50% of the radiolabeled ligand from the GnRH receptor, and is reported as a "Ki" value calculated by the following equation: Ki =(IC50)/(1 + L / KD) [formula] where L = radioligand and KD = affinity of radioligand for receptor (Cheng and Prusoff, Biochem. Pharmacol. 22:3099, 1973). GnRH receptor antagonists of this invention have a Ki of 100 µM or less. In a preferred embodiment of this invention, the GnRH receptor antagonists have a Ki of less than 10 µM, and more preferably less than 1µM. More preferred compounds include: 1-1, 1-2-5, 12, 13-15, 19, 21, 27, 31, 32, 34, 37, 55, 58, 64, 73, 2B, 2D, 3A, 3B, 3D, 4A, 4B, 4C, 4D, 4G, 4H, 5A and 5B (see Examples below).
The GnRH analog is labeled by the chloramine-T method. To 10 µg of peptide in 20 µl of 0.5M sodium phosphate buffer, pH 7.6, is added 1 mCi of Na125I, followed by 22.5 µg chloramine-T and the mixture vortexed for 20 sec. The reaction is stopped by the addition of 60 µg sodium metabisulfite and the free iodine is removed by passing the iodinated mixture through a C-8 Sep-Pak cartridge (Millipore Corp., Milford, MA). The peptide is eluted with a small volume of 80% acetonitrile/water. The recovered labeled peptide is further purified by reverse phase HPLC on a Vydac C-18 analytical column (The Separations Group, Hesperia, CA) on a Beckman 334 gradient HPLC system using a gradient of acetonitrile in 0.1% TFA. The purified radioactive peptide is stored in 0.1 % BSA/20% acetonitrile/0.1% TFA at -800C and can be used for up to 4 weeks.
Cells stably, or transiently, transfected with GnRH receptor expression vectors are harvested, resuspended in 5% sucrose and homogenized using a polytron homogenizer (2x 15 sec). Nuclei are removed by centrifugation (3000 x g for 5 min.), and the supernatant centrifuged (20,000 x g for 30 min, 4° C) to collect the membrane fraction. The final membrane preparation is resuspended in binding buffer (10mM Hepes (pH 7.5), 150 mM NaCl, and 0.1% BSA) and stored at -70°C. Binding reactions are performed in a Millipore MultiScreen 96-well filtration plate assembly with polyethylenimine coated GF/C membranes. The reaction is initiated by adding membranes (40 ug protein in 130 ul binding buffer) to 50ul of [^125I]-labeled GnRH peptide (~100,000 cpm), and 20ul of competitor at varying concentrations. The reaction is terminated after 90 minutes by application of vacuum and washing (2X) with phosphate buffered saline. Bound radioactivity is measured using 96-well scintillation counting (Packard Topcount) or by removing the filters from the plate and direct gamma counting. Ki values are calculated from competition binding data using non-linear least squares regression using the Prism software package (GraphPad Software).

Ki, < 1000 nM:
CCOC(=O)c1cn(Cc2ccccc2F)c2cc(C(C)(C)C)c(CN(C)CCc3ccccn3)n2c1=O [Example 2B]
CN(CCc1ccccn1)Cc1c(C(C)(C)C)cc2n(Cc3ccccc3F)cc(C(=O)NCCCc3ccccc3)c(=O)n12 [Example 2D]
COc1cccc(-c2c(C)n(Cc3ccccc3F)c3nc(C(C)(C)C)c(CNCCc4ccccc4F)n3c2=O)c1 [Example 3A, 2-(tert-Butyl)-3-[N-(2-fluorophenyl)ethyl]aminomethyl-5-(3-methoxyphenyl)-6-methyl-7-(2-fluorobenzyl)imidazolo[1,2-a]pyrimid-4-one]
COc1cccc(-c2c(C)n(Cc3ccccc3F)c3nc(C(C)(C)C)c(CNCCc4ccccn4)n3c2=O)c1 [Example 3B]
COc1cccc(-c2c(C)n(Cc3ccccc3F)c3nc(C(C)(C)C)c(CNCc4ccccn4)n3c2=O)c1 [Example 3D, 3-(N-(2-Pyridylmethyl))aminomethyl-2-(tert-butyl)-6-methyl-7-(2-fluorobenzyl)-5-(3-methoxyphenyl)imidazolo[1,2-a]pyrimid-4-one]
